{
  "source": "patent US20040053234A1",
  "about": "“Polynucletides that control delta-6 desaturase genes and methods for identifying compounds for modulating delta-6 desaturase” (priority 2000, published 2004)",
  "test_system": "delta-6-desaturase",
  "experiment": "Inhibition of delta-6-desaturase in rat liver microsomes incubated with [1-14C]-dihomogammalinolenic acid",
  "assay_type": "biochemical",
  "settings": "for % of inhibition: substrate [1-14C]-dihomogammalinolenic acid",
  "procedure": "Wistar rats under light halothane (15% in mineral oil) anesthesia were sacrificed by exsanguination during periods of high enzyme activity. Livers are immediately rinsed with cold 0.9% NaCl solution, weighed and minced with scissors. All procedures are performed at 4° C. unless specified otherwise. Livers are homogenized in a solution (1:3 w/v) containing 0.25 M sucrose, 62 mM potassium phosphate buffer (pH 7.0), 0.15 M KCl, 1.5 mM N-acetylcysteine, 5 mM MgCl2, and 0.1 mM EDTA using 4 strokes of a Potter-Elvehjem tissue homogenizer. The homogenate is centrifuged at 10,400×g for 20 min to eliminate mitochondria and cellular debris. The supernatant is filtered through a 3-layer cheesecloth and centrifuged at 105,000×g for 60 min. The microsomal pellet is gently resuspended in the same homogenization solution with a small glass/teflon homogenizer and stored at −70° C. The absence of mitochondrial contamination is enzymatically assessed. The protein concentration is measured using bovine serum albumin as the standard.\nReactions are started by adding 2 mg of microsomal protein to pre-incubated tubes containing 0.20 μCi of the substrate fatty acid (DGLA) at a final concentration of 33.3 μM in 1.5 ml of homogenization solution, containing NaF (42 mM), niacinamide (0.33 mM), ATP (1.57 mM), NADH (1.0 mM), coenzyme A (0.09 mM) and a range of concentrations of the enzyme modulators. N-propyl gallate was added to the incubation medium to a final concentration of 0.02-0.32 mM. The tubes are vortexed vigorously and after 15 min incubation in a shaking water bath (37° C.), the reactions are stopped and fatty acids are analyzed as described in herein. Alternatively, fatty acid methyl esters are analyzed by capillary column gas chromatography (GC).",
  "data": [
    {"smiles": "CCCOC(=O)c1cc(O)c(O)c(O)c1", "note": "[n-propyl gallate, Propyl ester of 3,4,5-trihydroxybenzoic acid]", "values": [
      {"measurement": "% of inhibition", "setting": "inhibitor 0.02 mM", "result": 62.9, "unit": "%"},
      {"measurement": "% of inhibition", "setting": "inhibitor 0.04 mM", "result": 74.9, "unit": "%"},
      {"measurement": "% of inhibition", "setting": "inhibitor 0.08 mM", "result": 86.4, "unit": "%"},
      {"measurement": "% of inhibition", "setting": "inhibitor 0.16 mM", "result": 88.7, "unit": "%"},
      {"measurement": "% of inhibition", "setting": "inhibitor 0.32 mM", "result": 100.0, "unit": "%"},
      {"measurement": "Inhibitor concentration at which a plateau of inhibition was reached", "setting": "rat liver microsomes, Table 20", "result": "0.08 to 0.32", "unit": "mM"}
    ]}
  ]
}
